Reference: patent US11285172B2, “Method for treating inflammatory diseases” (MacKay Memorial Hospital, priority 2019, dated 2022)
Structures can show the parent of a compound that is named as a salt.

Test system: FANCs internalization in HAECs
Assay: Endocytic pathway inhibition: FANC internalization in HAECs after endocytosis inhibitor pre-treatment (flow cytometry, confocal)
Format: cell-based, human
Conditions: for effect on FANCs internalization: complete medium, inhibitor pre-treatment 45 min (filipin 30 min); for effect on FANCs internalization / decrement of FANCs internalization compared to FANCs control: then FANCs 80 min; for decrement of FANCs internalization compared to FANCs control: 45 min inhibitor pre-treatment
Protocol: In certain experiments, HAECs were treated by endocytosis inhibitors to inhibit endocytic pathways. Endocytosis inhibitors are chlorpromazine hydrochloride (10 μg/ml, C8138), filipin (10 μg/ml, F9765), amiloride (10 μmol/L A7410), and genistein (50 μmol/L G6649; all obtained from Sigma-Aldrich).
Cells were seeded onto 2% gelatin-coated glass coverslips and incubated for 24 hours and applied to FANCs treatments. Cells were fixed with 1% paraformaldehyde, washed with PBS, then blocked with 5% bovine serum albumin (BSA) for 30 minutes. Then the cell culture was incubated with primary antibodies against VE-cadherin at 37° C. for 2 hours, followed by application of FITC-conjugated secondary antibody (Chemicon, Temecula, Calif., USA) for 50 minutes under room temperature. After one hour for the pre-treatment by above-mentioned endocytosis inhibitor, HAECs were incubated with FANCs for 80 minutes followed by washed with PBS and fixed with 1% paraformaldehyde. Afterwards, cells were stained with bisbenzamide (18.7 μmol/L) for 15 minutes and then washed with PBS buffer. Then, the cells were mounted by using 60% glycerol (v/v) and examined by using a confocal microscope (Leica TCS SP5, Leica, Germany) with a 40× oil objective/1.25 aperture. The images were captured under room temperature.
After 45 minutes of inhibitors pre-treatment (except 30 minutes of filipin treatment), FANCs were added and the incubation continued for additional 80 minutes. Thereafter, cells were subject to flow cytometry (FIGS. 1A-1D). […] However, in low serum or no serum medium, internalization of FANCs was blocked by chlorpromazine hydrochloride (compared to FANCs control, 60% of decrement at 1% FBS medium and 51% of decrement at no serum medium; FIGS. 1B and 1C).

Structure (SMILES) | effect on FANCs internalization (flow cytometry) | decrement of FANCs internalization compared to FANCs control (1% FBS medium, flow cytometry, HAECs) [%] | punctate fluorescence signals of FANCs (confocal microscopy) (confocal microscopy, HAECs, FANCs 80 min after inhibitor pre-treatment) | decrement of FANCs internalization compared to FANCs control (no serum medium, flow cytometry, HAECs) [%] | FANC internalization, dose dependence (only in low serum and no serum supplement culture environments, flow cytometry)
N=C(N)NC(=O)c1nc(Cl)c(N)nc1N [amiloride] | slighter effects | – | – | – | –
CN(C)CCCN1c2ccccc2Sc2ccc(Cl)cc21 [chlorpromazine hydrochloride] | slighter effects | 60 | down-regulated | 51 | attenuated FANC internalization in a dose-dependent manner
CCCCC[C@@H](O)[C@H]1C(=O)O[C@H](C)[C@@H](O)/C=C/C=C/C=C/C=C/C=C(\C)[C@@H](O)C[C@H](O)C[C@H](O)C[C@H](O)C[C@H](O)C[C@H](O)C[C@@H]1O [filipin] | slighter effects | – | – | – | –
O=c1c(-c2ccc(O)cc2)coc2cc(O)cc(O)c12 [genistein] | slighter effects | – | – | – | –
